Assay results taken from patent US7776849B2, “Benzenoid ansamycin derivative” (Kyowa Hakko Kirin Co., Ltd., priority 2005, dated 2010).

How the values were obtained:
[1] = target: T1, Human N-terminal recombinant Hsp90 protein (region of amino acids 9 to 236) (Homo sapiens, UniProt P07900); assay: Hsp90 protein binding assay (competition with biotinylated Radicicol, time-resolved fluorescence); conditions: immobilized Hsp90, biotinylated Radicicol 0.1 μmol/L, 24° C.; read-out: concentration inhibiting the binding of biotinylated Radicicol to the Hsp90 protein by 50% or more
T1 construct: Human N-terminal recombinant Hsp90 protein (region of amino acids 9 to 236); made in house
Procedure: Hsp90 Protein Binding Assay
Human N-terminal recombinant Hsp90 protein (region of amino acids 9 to 236) prepared according to the method described in “Cell”, 1997, Vol. 89, p. 239-250 was diluted to 1 μg/mL with Tris-buffered saline (TBS, pH 7.5) and added to each well of a 96-well ELISA assay plate (Greiner) in an amount of 70 μL/well. The plate was incubated overnight at 4° C. to obtain the solid phase.
The supernatant was removed, and Tris-buffered saline containing 1% bovine serum albumin (BSA) was added in an amount of 350 μL/well for blocking.
After the blocking solution was removed, each resulting solid phase was washed by the addition of Tris-buffered saline containing 0.05% Tween 20 (TBST) in an amount of 350 μL/well. This washing procedure was repeated three times. […]
Enhancement solution (Wallac Oy) was added thereto in an amount of 100 μL/well and color developing reaction was carried out at room temperature for 5 minutes, followed by measurement of time-resolved fluorescence (excitation wavelength: 340 nm, measurement wavelength: 615 nm) using Multilabel Counter (ARVO 1420, Wallac Oy).
The binding rate in each well treated the test compound was calculated from the time-resolved fluorescence measured for each well based on the time-resolved fluorescence measured with the positive control taken as 100% binding rate and that with the negative control taken as 0% binding rate.

[2] = system: human chronic myelocytic leukemia K562 cells; assay: Growth inhibition test on human chronic myelocytic leukemia K562 cells (WST-1); type: cell-based; conditions: 72 hours, read-out: 50% growth inhibitory concentration (GI50)
Procedure: Growth Inhibition Test on Human Chronic Myelocytic Leukemia K562 Cells
First, 1,500 cells of human chronic myelocytic leukemia K562 were inoculated into each well of a 96-well microplate (manufactured by Nunc Corp.), and using RPMI1640 medium containing 10% fetal calf serum (FCS), preculturing was performed in a 5% carbon dioxide incubator at 37° C. for 5 hours. A DMSO solution of each test compound prepared in a concentration of 10 mmol/L was stepwise diluted with the culture medium and added thereto in a total amount of 100 μL/well. The resulting wells were further cultured in the 5% carbon dioxide incubator at 37° C. for 72 hours. […] Using a microplate spectrophotometer (SpectraMax 340PC384; manufactured by Molecular Devices), the absorbance of each well was measured at 450 nm and 655 nm. […] The value obtained by subtracting the absorbance at 655 nm from the absorbance at 450 nm (absorbance difference) was calculated for each well. The absorbance difference obtained from cells untreated with any of the test compounds was designated as 100%. The absorbance difference obtained from cells treated with the compounds at the test concentrations was compared. […]

IC50 [1] [µM] | GI50 [2] [µM] | SMILES
≤ 10 | – | COC1/C=C\C=C(/C)C(=O)Nc2cc(O)cc(c2O)C(OC)C(C)CC(OC)C(OC)C(C)/C=C(\C)C1OC(N)=O (stereo not drawn) [Compound 1]
≤ 10 | ≤ 10 | COC1C=CC=C(C)C(=O)Nc2cccc(c2O)C(OC)C(C)CC(OC)C(OC)C(C)C=C(C)C1OC(N)=O (stereo not drawn) [Compound 2]
